Laboratory results: article PMC7966211, “Cooperativity of membrane-protein and protein–protein interactions control membrane remodeling by epsin 1 and affects clathrin-mediated endocytosis” (Cellular and Molecular Life Sciences: CMLS, 2020)
Changes are numbered by the printed parent chain. Names and notes keep the numbering of the source. Each block holds one molecule with its values, some of them ahead of it.

Tests used:
[1] = biological target: T1, ENTH domain of epsin1 (ENTH^WT; Rat Epsin1 WT ENTH 1–164) (Rattus norvegicus, UniProt O88339); assay: LUV co-sedimentation with SDS-PAGE, electron microscopy, DLS: partial restoration of oligomerization and membrane remodeling; assay type: biochemical; conditions: 4 times molar excess of L-SOP to ENTH; PS-free PC/PE/PI(4,5)P2 (65:30:5) LUVs; effect on oligomerization, binding not measured directly
T1 construct: gene Epn1; ENTH domain residues 1-164, pGEX-6P-2, expressed in E. coli BL21(DE3), GST tag cleaved with PreScission protease
T1 sequence (O88339 1-164): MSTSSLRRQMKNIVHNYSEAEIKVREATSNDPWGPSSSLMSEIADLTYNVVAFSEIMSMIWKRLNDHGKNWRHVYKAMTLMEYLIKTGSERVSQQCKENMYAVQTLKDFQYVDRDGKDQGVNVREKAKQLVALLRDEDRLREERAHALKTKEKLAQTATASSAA

[2] = biological target: T1, ENTH domain of epsin1 (ENTH^WT; Rat Epsin1 WT ENTH 1–164); assay: reflectometric interference spectroscopy (RIfS), Langmuir adsorption isotherm; assay type: binding; conditions: PI(4,5)P2 in supported POPC/PI(4,5)P2 (95:5) bilayer without PS; PBS pH 7.4; apparent membrane dissociation constant in protein concentration
From the text: (§1) reflectometric interference spectroscopy (RIfS), Langmuir adsorption isotherm on ENTH domain of epsin1 (ENTH^WT; Rat Epsin1 WT ENTH 1–164)

[3] = biological target: T2, ENTH domain of epsin1 (ENTH^WT; Rat Epsin1 WT ENTH 1–164) (Rattus norvegicus, UniProt O88339, R114A); assay: as above; assay type: binding; conditions: PI(4,5)P2 in supported POPC/PI(4,5)P2 (95:5) bilayer without PS; PBS pH 7.4; apparent membrane dissociation constant in protein concentration
T2 construct: gene Epn1; ENTH domain residues 1-164, pGEX-6P-2, expressed in E. coli BL21(DE3), GST tag cleaved with PreScission protease
T2 sequence (O88339 1-164 R114A): T1 sequence (O88339 1-164) with R114A
From the text: as §1

[4] = biological target: the molecule itself; assay: SDS-resistant oligomers on SDS-PAGE after liposome co-sedimentation; 20 µM protein with 2 mg/ml LUVs that contain PS (Folch + PI(4,5)P2, or PC/PE/PS/PI(4,5)P2 with 5-20% PS), 3 h 30 °C, HEPES buffer, 205,000 x g, pellet and supernatant on SDS-PAGE; self-association on membranes
[5] = biological target: the molecule itself; assay: FRET or BRET; Atto488-labeled (donor) and Atto532-labeled (acceptor) ENTH domains, total 5 and 15 µM, in 2 mg/ml LUV suspension; LUVs PC/PE/PS/PI(4,5)P2 (45:30:20:5) compared with PS-free PC/PE/PI(4,5)P2 (65:30:5), on which the wild type gave reduced FRET; excitation 493 nm

Molecule: N[C@@H](COP(=O)(O)O)C(=O)O [L-SOP]
LUV co-sedimentation with SDS-PAGE, electron microscopy, DLS: partial restoratio [1]: presence of the PS headgroup was sufficient to partially restore oligomerization and membrane remodeling

Kd [2]: 1000 ± 200 nM | Kd [3]: 2900 ± 800 nM
Molecule: PI(4,5)P2

B1: Rat Epsin1 WT ENTH 1-164 (domain or fragment, UniProt O88339 1-164, looked up)
chain: T1 sequence (O88339 1-164)
notes: Epsin 1, rat, ENTH (epsin N-terminal homology) domain, residues 1-164; Expressed from pGEX-6P-2; also called ENTH domain; ENTH^WT; source: E. coli BL21(DE3), purified (GSTrap, GST cleaved with PreScission Protease, anion exchange, SEC)
binding result [4]: binds

B2: ENTH WT (C96A A155C), fluorescently labeled (domain or fragment, rat, UniProt O88339 1-164, looked up)
chain: T1 sequence (O88339 1-164) with C96A, A155C
modifications: Atto488 maleimide (donor population) or Atto532 maleimide (acceptor population) by cysteine modification
notes: Epsin 1, rat, ENTH domain, residues 1-164, with C96A and A155C for labeling; Two populations of the same construct, one with Atto488 and one with Atto532, were mixed for FRET; also called ENTH-Atto-488; ENTH-Atto-532; source: E. coli BL21(DE3), purified (GSTrap, GST cleaved with PreScission Protease, anion exchange, SEC), then labeled
binding result [5]: binds
